Data on one compound can be found in US20240391931A1 (Bristol-Myers Squibb Company, priority 2021, published 2024).

The assay deals with EGFR (Homo sapiens, UniProt P00533). As to the kind of experiment: EGFR occupancy in N87 cells. The conditions noted are these: N87 cells; concentration at which 50% of EGFR is irreversible bound; read-out: N87 EGFR Occ. Also on record: endogenous in cells; host or cells: N87. The format is cell-based. The procedure: In order to assess free EGFR protein, a biotinylated probe was utilized as described for HER2 occupancy. N87 cells were plated, treated, and lysed as described for HER2 occupancy method. After treatment, the cells were washed three times with cold PBS, lysed at room temperature for 1 hr in modified occupancy lysis buffer (prepared as described in section titled “HER2 Occupancy Assay”). Lysates were stored at −70° C. until further analysis. For determination of % occupancy, lysates were loaded into duplicate plates of the phospho (Tyr 1068)/total EGFR whole cell lysate kit (Meso-Scale Discovery) and incubated overnight. Plates were washed and incubated with either EGFR-sulfoTag (1:50, Meso Scale Discovery) or Strep-Sulfo Tag (1:1000, Meso Scale Discovery), for detection of free and total EGFR, respectively. BSA control spots included in MSD plates were used to subtract non-specific signal. A standard curve of untreated cells in serial dilution was included in each plate to convert streptavidin and total EGFR MSD signals into free EGFR and total EGFR. Free EGFR was normalized to total EGFR for each sample. Data, reported as % […] control, was fitted using a sigmoidal curve analysis program (Graph Pad Prism version 6) with variable Hill slope to determine EC50 values. The results are provided in Table 4, under column titled “N87-EGFR Occ”. EGFR Occ is the concentration of test compound at which 50% of EGFR is irreversible bound.
Chain of EGFR (P00533 25-1210): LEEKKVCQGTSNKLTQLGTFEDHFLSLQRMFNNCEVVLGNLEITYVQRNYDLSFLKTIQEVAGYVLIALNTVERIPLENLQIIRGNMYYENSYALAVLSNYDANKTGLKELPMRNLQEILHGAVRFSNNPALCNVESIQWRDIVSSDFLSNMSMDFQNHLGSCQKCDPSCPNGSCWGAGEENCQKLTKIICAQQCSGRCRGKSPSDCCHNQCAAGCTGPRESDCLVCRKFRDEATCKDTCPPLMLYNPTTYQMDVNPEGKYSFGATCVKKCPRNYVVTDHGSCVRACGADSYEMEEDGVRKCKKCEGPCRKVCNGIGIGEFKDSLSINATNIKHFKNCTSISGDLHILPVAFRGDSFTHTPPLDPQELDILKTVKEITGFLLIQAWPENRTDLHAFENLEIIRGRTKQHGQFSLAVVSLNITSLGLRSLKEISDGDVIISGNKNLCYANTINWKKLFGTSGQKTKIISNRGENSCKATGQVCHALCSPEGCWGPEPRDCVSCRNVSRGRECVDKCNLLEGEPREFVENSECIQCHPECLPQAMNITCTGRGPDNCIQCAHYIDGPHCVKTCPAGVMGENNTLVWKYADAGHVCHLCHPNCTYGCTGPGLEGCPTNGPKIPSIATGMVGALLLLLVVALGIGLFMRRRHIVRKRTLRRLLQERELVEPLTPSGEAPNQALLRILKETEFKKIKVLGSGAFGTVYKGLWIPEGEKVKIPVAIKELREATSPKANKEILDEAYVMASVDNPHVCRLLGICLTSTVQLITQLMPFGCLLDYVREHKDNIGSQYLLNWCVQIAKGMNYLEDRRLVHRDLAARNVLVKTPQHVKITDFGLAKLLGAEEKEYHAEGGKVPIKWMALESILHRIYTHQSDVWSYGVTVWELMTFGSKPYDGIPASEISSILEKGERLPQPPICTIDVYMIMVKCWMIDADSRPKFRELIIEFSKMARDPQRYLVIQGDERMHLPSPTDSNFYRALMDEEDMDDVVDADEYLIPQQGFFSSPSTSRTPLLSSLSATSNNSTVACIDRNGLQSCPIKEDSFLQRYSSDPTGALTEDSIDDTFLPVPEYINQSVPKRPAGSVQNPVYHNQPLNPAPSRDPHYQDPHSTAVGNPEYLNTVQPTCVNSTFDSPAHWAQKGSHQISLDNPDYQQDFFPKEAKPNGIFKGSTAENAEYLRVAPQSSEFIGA

Regarding `COc1ccc(Oc2ccc(Nc3ncnc4sc5c(c34)CCN(C(=O)/C=C/CN(C)C)C5)cc2C)cn1` [Compound 95, (E)-4-(Dimethylamino)-1-(4-((4-((6-methoxypyridin-3-yl)oxy)-3-methylphenyl)amino)-5,6-dihydropyrido[4′,3′:4,5]thieno[2,3-d]pyrimidin-7(8H)-yl)but-2-en-1-one], the EC50 was 100 to 350 nM.
